Experimental data: ChEMBL document CHEMBL1201862, “PubChem BioAssay data set” (2004)
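Compound exposure: 48 hours, 5 concentrations, 96-well plates. GI50: concentration for 50% inhibition of growth.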 Active and inactive are the calls of the source. Cut-off read from the data, not from the text of the source: active = GI50 up to about 1.1 µM and inactive = higher.

Columns and labels:
Assay in all cases: inhibition of tumour cell growth, NCI panel, 48 h
EKVX = test system: EKVX
SF-268 = test system: SF-268
OVCAR-3 = test system: OVCAR-3
HT-29 = test system: HT-29
SW-620 = test system: SW-620
MOLT-4 = test system: MOLT-4
UO-31 = test system: UO-31
SNB-19 = test system: SNB-19
COLO 205 = test system: COLO 205
KM12 = test system: KM12
Malme-3M = test system: Malme-3M
NCI-H522 = test system: NCI-H522
K562 = test system: K562
SK-MEL-2 = test system: SK-MEL-2
NCI-H226 = test system: NCI-H226
CAKI-1 = test system: CAKI-1
HCT-15 = test system: HCT-15
OVCAR-8 = test system: OVCAR-8
NCI-H23 = test system: NCI-H23
A498 = test system: A498

| Structure (SMILES) | GI50 (EKVX) | GI50 (SF-268) | GI50 (OVCAR-3) | GI50 (HT-29) | GI50 (SW-620) | GI50 (MOLT-4) | GI50 (UO-31) | GI50 (SNB-19) | GI50 (COLO 205) | GI50 (KM12) | GI50 (Malme-3M) | GI50 (NCI-H522) | GI50 (K562) | GI50 (SK-MEL-2) | GI50 (NCI-H226) | GI50 (CAKI-1) | GI50 (HCT-15) | GI50 (OVCAR-8) | GI50 (NCI-H23) | GI50 (A498) |
| --- | --- | --- | --- | --- | --- | --- | --- | --- | --- | --- | --- | --- | --- | --- | --- | --- | --- | --- | --- | --- |
| CC(C)C(=O)CC(c1ccc(Br)cc1)N1N=C(C(C)C)CC1c1ccc(Br)cc1 (stereo not drawn) | 44.9 µM (inactive) | > 100 µM (inactive) | 70.8 µM (inactive) | 18.6 µM (inactive) | 93.3 µM (inactive) | 31.3 µM (inactive) | 68.7 µM (inactive) | 50.7 µM (inactive) | > 100 µM (inactive) | > 100 µM (inactive) | 31.4 µM (inactive) | 65.9 µM (inactive) | 64.4 µM (inactive) | 53.6 µM (inactive) | > 100 µM (inactive) | > 100 µM (inactive) | 62.4 µM | > 100 µM (inactive) | > 100 µM (inactive) |  |
| O=C1C=C(N2CC2)C(=O)C=C1N1CC1 |  | 0.155 µM (active) | 0.0889 µM (active) | 0.204 µM (active) | 0.0891 µM (active) | 0.0344 µM (active) | 0.104 µM (active) | 0.904 µM (active) | 0.0984 µM (active) | 0.824 µM (active) | 0.107 µM (active) | 0.0652 µM (active) |  | 0.12 µM (active) | 0.418 µM (active) | < 0.0148 µM (active) | 0.102 µM |  | 0.0904 µM (active) | 0.0318 µM (active) |
| CC(=O)OC/C=C\Cn1nc(Br)c(=O)[nH]c1=O | 17.4 µM (inactive) | 14.9 µM (inactive) | 9.75 µM (inactive) |  | 14.3 µM (inactive) |  | 16.4 µM (inactive) | 18.7 µM (inactive) | 13.5 µM (inactive) | 15.5 µM (inactive) | 14.3 µM (inactive) | 2.81 µM (inactive) | 9.33 µM (inactive) | 13.1 µM (inactive) | 12.9 µM (inactive) | 10.7 µM (inactive) | 13.1 µM | 14.9 µM (inactive) | 15.1 µM (inactive) | 19.9 µM (inactive) |
| CNC(=O)SCC(NC(=O)CCC(N)C(=O)O)C(=O)NCC(=O)O (stereo not drawn) | 75 µM (inactive) | > 80.4 µM (inactive) | > 100 µM (inactive) | > 84.5 µM (inactive) | > 100 µM (inactive) | 60.8 µM (inactive) | > 100 µM (inactive) | > 100 µM (inactive) | 51.2 µM (inactive) | > 100 µM (inactive) | > 65.5 µM (inactive) | > 86.5 µM (inactive) | 34.8 µM (inactive) | > 85.7 µM (inactive) | > 100 µM (inactive) | > 100 µM (inactive) | > 78 µM | > 100 µM (inactive) | > 100 µM (inactive) | > 100 µM (inactive) |
| CC(C)C1OC(=O)/C=C/C=C/C=C/C=C/C=C/CC(O)C(C)C(O)CC(O)CC(O)CC(O)CC(O)CC(O)CC(O)/C=C/C1C (stereo not drawn) | > 100 µM (inactive) | > 100 µM (inactive) | > 100 µM (inactive) | > 100 µM (inactive) | > 100 µM (inactive) | > 100 µM (inactive) | > 100 µM (inactive) | > 100 µM (inactive) |  | > 100 µM (inactive) | 70.5 µM (inactive) | > 100 µM (inactive) | > 100 µM (inactive) | > 100 µM (inactive) |  |  | > 100 µM | > 100 µM (inactive) | > 100 µM (inactive) | > 100 µM (inactive) |
| CCOC(=O)C1(C(=O)OCC)CSC1 |  | > 100 µM (inactive) | > 100 µM (inactive) | > 100 µM (inactive) | > 100 µM (inactive) | > 100 µM (inactive) | > 100 µM (inactive) | > 100 µM (inactive) | > 100 µM (inactive) | > 100 µM (inactive) |  | > 100 µM (inactive) | > 100 µM (inactive) |  | > 100 µM (inactive) |  | > 100 µM | > 100 µM (inactive) | > 100 µM (inactive) | 42 µM (inactive) |
| CCOC(=O)N1CCN(C(=O)Nc2cccc3ccccc23)CC1 | > 10 µM (inactive) | > 10 µM (inactive) | > 10 µM (inactive) | > 10 µM (inactive) | > 10 µM (inactive) | > 10 µM (inactive) | > 10 µM (inactive) | > 10 µM (inactive) | > 10 µM (inactive) | > 10 µM (inactive) | > 10 µM (inactive) | > 10 µM (inactive) | > 10 µM (inactive) | > 10 µM (inactive) | > 10 µM (inactive) | > 10 µM (inactive) | > 10 µM | > 10 µM (inactive) | > 10 µM (inactive) | > 10 µM (inactive) |
| NC(=O)Nc1ccc(C(=O)NCCCNC(=O)c2ccc(NC(N)=O)cc2)cc1 | > 100 µM (inactive) | > 100 µM (inactive) |  | > 100 µM (inactive) | > 100 µM (inactive) | > 100 µM (inactive) | > 100 µM (inactive) | > 100 µM (inactive) | > 100 µM (inactive) | > 100 µM (inactive) | > 100 µM (inactive) | > 100 µM (inactive) | > 100 µM (inactive) | > 100 µM (inactive) | > 100 µM (inactive) | > 100 µM (inactive) | > 100 µM | > 100 µM (inactive) | > 100 µM (inactive) | > 100 µM (inactive) |
| C=CCN1C(=O)/C(=C/c2cccs2)N=C1SC1OC(COC(=O)c2ccccc2)C(OC(=O)c2ccccc2)C1OC(=O)c1ccccc1 (stereo not drawn) | > 100 µM (inactive) |  | > 100 µM (inactive) |  | > 100 µM (inactive) | > 100 µM (inactive) |  |  | > 100 µM (inactive) | > 100 µM (inactive) | > 100 µM (inactive) | 11.4 µM (inactive) | > 100 µM (inactive) | > 100 µM (inactive) | > 100 µM (inactive) | > 100 µM (inactive) | > 100 µM | > 100 µM (inactive) | > 100 µM (inactive) | > 100 µM (inactive) |
| N#Cc1c(NC(=S)Nc2ccc(Cl)cc2)sc2c1CCCC2 | 3.83 µM (inactive) | > 100 µM (inactive) | > 100 µM (inactive) | > 100 µM (inactive) | > 100 µM (inactive) | 16.6 µM (inactive) | > 100 µM (inactive) | > 100 µM (inactive) | > 100 µM (inactive) | > 100 µM (inactive) | 41.2 µM (inactive) | 25.8 µM (inactive) | 29.4 µM (inactive) | > 100 µM (inactive) | > 100 µM (inactive) | > 100 µM (inactive) | > 100 µM | 14.8 µM (inactive) | > 100 µM (inactive) | > 100 µM (inactive) |
| OCC(CO)CC1COc2ccccc2O1 (stereo not drawn) | > 10 µM (inactive) | > 10 µM (inactive) | > 10 µM (inactive) | > 10 µM (inactive) | > 10 µM (inactive) | > 10 µM (inactive) | > 10 µM (inactive) | > 10 µM (inactive) | > 10 µM (inactive) | > 10 µM (inactive) | > 10 µM (inactive) | > 10 µM (inactive) | > 10 µM (inactive) | > 10 µM (inactive) | > 10 µM (inactive) | > 10 µM (inactive) | > 10 µM | > 10 µM (inactive) | > 10 µM (inactive) | > 10 µM (inactive) |
| ICC1CCCO1 (stereo not drawn) | > 100 µM (inactive) | > 100 µM (inactive) |  | > 100 µM (inactive) | > 100 µM (inactive) | > 100 µM (inactive) |  | > 100 µM (inactive) | > 100 µM (inactive) | > 100 µM (inactive) | > 100 µM (inactive) |  |  | > 100 µM (inactive) | > 100 µM (inactive) | > 100 µM (inactive) | > 100 µM | > 100 µM (inactive) | > 100 µM (inactive) | > 100 µM (inactive) |
| C[C@H](CN1CC(=O)NC(=O)C1)N1CC(=O)NC(=O)C1 | 57 µM (inactive) | > 96.2 µM (inactive) | > 100 µM (inactive) | > 100 µM (inactive) | > 47.3 µM (inactive) | 9.89 µM (inactive) | 20 µM (inactive) | 50.4 µM (inactive) | 11.7 µM (inactive) | > 100 µM (inactive) | 42.9 µM (inactive) | 20.8 µM (inactive) | > 84.3 µM (inactive) | > 10 µM (inactive) | 39 µM (inactive) | > 100 µM (inactive) | > 76.2 µM | > 100 µM (inactive) | > 86.1 µM (inactive) | > 64.6 µM (inactive) |
| CC(C)=CCc1c(C)cc2cc3c(c(O)c2c1O)C(=O)C=C(O)C3(CC=C(C)C)C/C=C(\C)CO (stereo not drawn) | 35.7 µM (inactive) | 36.7 µM (inactive) | 36.9 µM (inactive) | 37.2 µM (inactive) | 39.8 µM (inactive) | 23.2 µM (inactive) | 29 µM (inactive) | 39.8 µM (inactive) | 40.5 µM (inactive) | 41.9 µM (inactive) | 32.3 µM (inactive) | 27.9 µM (inactive) | 23.3 µM (inactive) | 13 µM (inactive) | 34.2 µM (inactive) | 46.3 µM (inactive) | 28 µM | 28.8 µM (inactive) | 37.4 µM (inactive) | 8.81 µM (inactive) |
